These results are taken from ChEMBL document CHEMBL1201862, “PubChem BioAssay data set” (2004).

The structures appear in SMILES notation. Active and inactive are the calls of the source. Bounds are passed on as bounds.

The target in assay [1] is Eukaryotic translation initiation factor 4E (Mus musculus, UniProt P63073). The experiment in a line: eIF4E–eIF4G protein interaction inhibitors, dose response, biochemical, TR-FRET (AID 855).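 Also: potency for disrupting eIF4E binding to eIF4GI seen as loss of FRET.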 The assay is classed as functional.
The nature of assay [2]: HepG2 cell cytotoxicity, dose response, cytotoxicity control for Shn3 inhibitor project, CellTiter-Glo, cherry-picked (AID 624134). The assay is classed as functional, cell-based.
Assay [3] concerns the target Glucose-6-phosphate 1-dehydrogenase (Homo sapiens, UniProt P11413). In words: human G6PD enzyme inhibitors, dose response, selectivity assay for P. falciparum G6PD inhibitor project, biochemical, fluorescence (AID 504792). Type of assay: functional.
Assay [4] is described as follows: control 3'UTR Renilla luciferase suppression, dose response, counter-screen for Shn3 inhibitor project, cell-based, Clone20-Shn3RL, cherry-picked (AID 624133). The assay is classed as functional.
In a further assay the target is Nonstructural protein 1 (Influenza A virus, UniProt Q194T2). The assay is classed as functional, Influenza A virus (A/California/07/2009(H1N1)).
Assay [5] deals with Induced myeloid leukemia cell differentiation protein Mcl-1 (Homo sapiens, UniProt Q07820). The assay is classed as functional.
In assay [6] the target is Peroxisome proliferator-activated receptor gamma/Nuclear receptor coactivator 2 (Homo sapiens, UniProt P37231). In words: TR-FRET dose response biochemical High Throughput Screening assay for agonists of the steroid receptor coactivator 2 (SRC-2) recruitment by the peroxisome proliferator-activated receptor gamma (PPAR gamma): non-selective agonists. [Related pubchem assays: 1297, 1032 ]. The assay is classed as functional. In general terms: Time-resolved FRET reads energy transfer from a long-lived donor to a nearby acceptor.

Assay [7] has as its target Peroxisome proliferator-activated receptor gamma/Nuclear receptor coactivator 3 (Homo sapiens, UniProt P37231). The experiment in a line: TR-FRET dose response biochemical High Throughput Screening assay for agonists of the steroid receptor coactivator 3 (SRC-3) recruitment by the peroxisome proliferator-activated receptor gamma (PPAR gamma): non-selective agonists. [Related pubchem assays: 1301 (Confirmation screen.), 1048 (Primary screen.)]. Type of assay: functional.

Assay [8] has as its target Peroxisome proliferator-activated receptor gamma/Nuclear receptor coactivator 1 (Homo sapiens, UniProt P37231). The experiment in a line: TR-FRET dose response biochemical High Throughput Screening assay for agonists of the steroid receptor coactivator 1 (SRC-1) recruitment by the peroxisome proliferator-activated receptor gamma (PPAR gamma): non-selective agonists. [Related pubchem assays (depositor defined):AID1300, AID1808, AID504735, AID631]. The assay is classed as protein assay.

The target in assay [9] is G-protein coupled receptor 55 (Homo sapiens, UniProt Q9Y2T6). The experiment in a line: GPR55 antagonists blocking LPI-driven arrestin recruitment, primary screen, imaging, U2OS, beta-arrestin-GFP, LPI agonist (AID 2013).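 Also: antagonist potency measured as reduced agonist-driven arrestin aggregation.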 Type of assay: functional. A general note: Activated receptors often draw arrestin, which recruitment assays turn into a signal.
Assay [10] can be described thus: Luminescence-based dose response cell-based high throughput screening assay for cytotoxic compounds using the IEC-6 intestinal epithelial cell line. [Related pubchem assays: 1858 (Summary AID.), 1825 (Counterscreen.), 1907 (Confirmation screen.)]. Type of assay: functional.
Assay [11] is described as follows: Shn3 3'UTR reporter inhibitors, dose response, cell-based, Clone20 osteoblasts, firefly luciferase, cherry-picked (AID 624132).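 Also: firefly luciferase luminescence from reporter carrying the Shn3 3'UTR in osteoblasts.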 Type of assay: functional.
The target in assay [12] is Heat shock protein HSP 90-alpha (Homo sapiens, UniProt P07900). The assay is classed as functional, organism-based.
Assay [13] in a line: THP-1 cell cytotoxicity, dose response, cytotoxicity control for Vif-APOBEC3G degradation inhibitor project, THP-1 cells (AID 1117359). The assay is classed as functional. As to conditions: Human immunodeficiency virus 1, THP-1.
The nature of assay [14]: cytotoxicity in HEK-293T cells, dose response, cytotoxicity control for TCR NF-kB inhibitor project, luminescence, T-cell screen hits (AID 489026).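 Also: cells exposed to compound about 14 hours before the viability readout.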 The assay is classed as functional, cell-based.
Assay [15] deals with Peroxisome proliferator-activated receptor gamma (Homo sapiens, UniProt P37231). In words: PPARg partial agonists, dose response, cell-based, luminescence, assay provider (AID 504447). Type of assay: functional.
Assay [16] deals with T1, Sentrin-specific protease 1 (Homo sapiens, UniProt Q9P0U3).
T1 sequence (Q9P0U3 whole entry): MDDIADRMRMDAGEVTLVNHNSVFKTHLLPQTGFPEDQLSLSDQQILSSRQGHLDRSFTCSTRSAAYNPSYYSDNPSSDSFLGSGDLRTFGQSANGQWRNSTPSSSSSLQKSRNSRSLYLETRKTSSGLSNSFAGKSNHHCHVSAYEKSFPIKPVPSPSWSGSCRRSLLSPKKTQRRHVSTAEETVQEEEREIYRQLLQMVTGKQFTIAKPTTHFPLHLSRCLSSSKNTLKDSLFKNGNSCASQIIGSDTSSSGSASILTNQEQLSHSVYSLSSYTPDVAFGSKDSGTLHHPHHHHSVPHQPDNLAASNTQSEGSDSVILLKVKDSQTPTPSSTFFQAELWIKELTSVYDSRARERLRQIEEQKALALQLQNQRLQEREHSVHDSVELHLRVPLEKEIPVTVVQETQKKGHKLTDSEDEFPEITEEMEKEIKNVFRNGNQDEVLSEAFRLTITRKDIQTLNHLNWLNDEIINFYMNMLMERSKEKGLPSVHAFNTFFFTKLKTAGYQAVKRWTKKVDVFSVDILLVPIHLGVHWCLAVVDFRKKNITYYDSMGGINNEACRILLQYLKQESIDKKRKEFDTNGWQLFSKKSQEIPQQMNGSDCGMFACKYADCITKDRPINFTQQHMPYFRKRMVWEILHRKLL
The experiment in a line: Dose response confirmation of small molecule inhibitors of the catalytic domain of the SUMO protease, SENP1 in a FRET assay. The assay is classed as functional. As to conditions: read-out: IC50_Mean.

Assay [17] has as its target T1, Sentrin-specific protease 1. The experiment in a line: potency of human SENP1 inhibitors, dose response, biochemical, kinetic FRET (AID 651697). The assay is classed as functional. As to conditions: read-out: IC50_Mean.

What is called AC50 is the concentration at which the activity in the assay is half-maximal. The term EC50 denotes the concentration at which the effect is half-maximal. Usually CC50 stands for the concentration at which the toxic effect on the cells reaches its halfway point.

Sequence of Peroxisome proliferator-activated receptor gamma/Nuclear receptor coactivator 2 (P37231 whole entry): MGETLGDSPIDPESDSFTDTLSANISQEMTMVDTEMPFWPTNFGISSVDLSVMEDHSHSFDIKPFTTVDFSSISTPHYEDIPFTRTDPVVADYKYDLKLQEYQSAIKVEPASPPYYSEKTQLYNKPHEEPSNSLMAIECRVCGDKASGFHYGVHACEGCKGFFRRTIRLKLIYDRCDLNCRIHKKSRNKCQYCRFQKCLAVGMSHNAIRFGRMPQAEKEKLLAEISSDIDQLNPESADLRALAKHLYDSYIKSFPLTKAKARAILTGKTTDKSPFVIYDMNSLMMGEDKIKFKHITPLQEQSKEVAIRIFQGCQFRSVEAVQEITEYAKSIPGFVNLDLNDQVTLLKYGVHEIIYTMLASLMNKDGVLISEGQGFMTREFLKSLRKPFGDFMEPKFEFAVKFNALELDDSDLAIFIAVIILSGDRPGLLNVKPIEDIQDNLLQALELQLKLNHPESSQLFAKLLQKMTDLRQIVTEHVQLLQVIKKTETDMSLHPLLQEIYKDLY
Sequence of Peroxisome proliferator-activated receptor gamma/Nuclear receptor coactivator 2 (Q15596 whole entry, further chain): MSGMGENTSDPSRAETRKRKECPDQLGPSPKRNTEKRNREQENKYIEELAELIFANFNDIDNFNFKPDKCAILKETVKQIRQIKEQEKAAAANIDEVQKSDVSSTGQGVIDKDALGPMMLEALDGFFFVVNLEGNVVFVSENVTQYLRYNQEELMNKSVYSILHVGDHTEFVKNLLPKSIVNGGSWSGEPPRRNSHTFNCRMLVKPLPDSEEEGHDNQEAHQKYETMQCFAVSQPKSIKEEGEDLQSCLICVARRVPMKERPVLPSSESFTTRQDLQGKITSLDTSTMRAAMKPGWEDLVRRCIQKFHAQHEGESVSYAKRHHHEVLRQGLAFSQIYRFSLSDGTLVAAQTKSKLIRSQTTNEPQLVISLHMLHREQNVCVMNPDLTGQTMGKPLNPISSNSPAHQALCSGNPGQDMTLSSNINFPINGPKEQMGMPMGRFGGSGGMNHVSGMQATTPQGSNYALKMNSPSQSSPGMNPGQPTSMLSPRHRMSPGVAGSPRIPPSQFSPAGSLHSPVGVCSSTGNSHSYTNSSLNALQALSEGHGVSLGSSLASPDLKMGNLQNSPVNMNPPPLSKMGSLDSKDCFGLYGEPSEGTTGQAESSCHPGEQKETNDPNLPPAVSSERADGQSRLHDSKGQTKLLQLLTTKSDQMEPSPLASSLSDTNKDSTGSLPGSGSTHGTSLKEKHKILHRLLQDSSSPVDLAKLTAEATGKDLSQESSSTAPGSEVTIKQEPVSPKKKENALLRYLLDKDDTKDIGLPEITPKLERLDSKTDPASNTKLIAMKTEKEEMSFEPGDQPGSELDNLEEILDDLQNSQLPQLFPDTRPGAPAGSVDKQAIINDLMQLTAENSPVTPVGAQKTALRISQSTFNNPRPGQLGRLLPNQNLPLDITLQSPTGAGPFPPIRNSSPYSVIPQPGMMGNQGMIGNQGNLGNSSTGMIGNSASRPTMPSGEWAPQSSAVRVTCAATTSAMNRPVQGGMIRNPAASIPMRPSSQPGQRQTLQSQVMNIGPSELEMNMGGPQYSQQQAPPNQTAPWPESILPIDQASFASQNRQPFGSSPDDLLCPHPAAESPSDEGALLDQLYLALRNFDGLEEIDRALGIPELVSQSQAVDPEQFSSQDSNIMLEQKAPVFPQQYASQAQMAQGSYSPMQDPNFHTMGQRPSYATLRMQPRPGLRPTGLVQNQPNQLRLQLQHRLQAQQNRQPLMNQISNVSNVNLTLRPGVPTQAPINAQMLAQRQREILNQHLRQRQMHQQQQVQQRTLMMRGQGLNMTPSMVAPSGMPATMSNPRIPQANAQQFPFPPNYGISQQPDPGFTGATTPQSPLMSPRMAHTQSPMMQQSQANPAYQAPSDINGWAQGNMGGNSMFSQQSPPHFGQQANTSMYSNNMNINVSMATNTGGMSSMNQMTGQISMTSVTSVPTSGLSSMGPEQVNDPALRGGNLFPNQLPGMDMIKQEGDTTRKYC
Sequence of Peroxisome proliferator-activated receptor gamma/Nuclear receptor coactivator 1 (P37231 whole entry): as the sequence (P37231 whole entry) above
Sequence of Peroxisome proliferator-activated receptor gamma/Nuclear receptor coactivator 1 (Q15788 whole entry, further chain): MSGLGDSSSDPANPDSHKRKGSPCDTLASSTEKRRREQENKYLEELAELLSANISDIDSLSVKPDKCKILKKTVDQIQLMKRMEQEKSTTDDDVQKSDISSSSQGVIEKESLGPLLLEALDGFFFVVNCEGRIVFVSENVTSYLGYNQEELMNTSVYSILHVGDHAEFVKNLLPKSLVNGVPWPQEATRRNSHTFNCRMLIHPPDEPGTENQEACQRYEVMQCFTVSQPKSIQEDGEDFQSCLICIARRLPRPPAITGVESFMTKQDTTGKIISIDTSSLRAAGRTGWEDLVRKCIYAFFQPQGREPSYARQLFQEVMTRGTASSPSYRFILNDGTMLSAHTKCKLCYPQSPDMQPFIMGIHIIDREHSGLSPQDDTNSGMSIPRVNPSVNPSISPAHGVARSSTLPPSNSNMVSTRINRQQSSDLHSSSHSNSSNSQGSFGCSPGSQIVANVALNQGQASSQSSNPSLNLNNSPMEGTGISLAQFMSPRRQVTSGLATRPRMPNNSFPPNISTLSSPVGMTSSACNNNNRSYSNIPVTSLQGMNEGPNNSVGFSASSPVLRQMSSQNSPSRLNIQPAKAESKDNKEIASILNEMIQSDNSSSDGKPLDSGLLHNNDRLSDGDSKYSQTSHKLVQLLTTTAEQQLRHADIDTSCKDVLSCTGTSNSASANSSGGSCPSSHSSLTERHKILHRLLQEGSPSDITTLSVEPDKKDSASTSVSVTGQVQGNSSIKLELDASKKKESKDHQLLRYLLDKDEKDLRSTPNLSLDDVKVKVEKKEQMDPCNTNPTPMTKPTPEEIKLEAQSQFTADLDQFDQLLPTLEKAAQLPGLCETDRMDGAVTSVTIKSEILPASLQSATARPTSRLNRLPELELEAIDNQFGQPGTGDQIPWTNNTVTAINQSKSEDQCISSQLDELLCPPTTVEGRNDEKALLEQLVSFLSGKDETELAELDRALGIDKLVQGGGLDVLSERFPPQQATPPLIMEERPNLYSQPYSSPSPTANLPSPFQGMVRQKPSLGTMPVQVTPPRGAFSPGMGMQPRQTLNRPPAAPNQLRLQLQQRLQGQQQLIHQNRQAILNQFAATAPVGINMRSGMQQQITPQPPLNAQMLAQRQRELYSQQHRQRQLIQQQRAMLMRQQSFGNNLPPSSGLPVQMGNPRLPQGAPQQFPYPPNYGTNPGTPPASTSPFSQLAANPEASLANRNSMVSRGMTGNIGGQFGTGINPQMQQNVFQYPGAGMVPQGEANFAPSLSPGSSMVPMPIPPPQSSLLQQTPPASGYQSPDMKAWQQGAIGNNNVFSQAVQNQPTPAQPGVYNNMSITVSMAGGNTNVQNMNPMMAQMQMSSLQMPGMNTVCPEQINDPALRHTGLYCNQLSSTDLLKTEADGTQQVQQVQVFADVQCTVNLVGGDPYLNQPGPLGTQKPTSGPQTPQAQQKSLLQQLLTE
Sequence of Peroxisome proliferator-activated receptor gamma (P37231 whole entry): as the sequence (P37231 whole entry) above
Sequence of G-protein coupled receptor 55 (Q9Y2T6 whole entry): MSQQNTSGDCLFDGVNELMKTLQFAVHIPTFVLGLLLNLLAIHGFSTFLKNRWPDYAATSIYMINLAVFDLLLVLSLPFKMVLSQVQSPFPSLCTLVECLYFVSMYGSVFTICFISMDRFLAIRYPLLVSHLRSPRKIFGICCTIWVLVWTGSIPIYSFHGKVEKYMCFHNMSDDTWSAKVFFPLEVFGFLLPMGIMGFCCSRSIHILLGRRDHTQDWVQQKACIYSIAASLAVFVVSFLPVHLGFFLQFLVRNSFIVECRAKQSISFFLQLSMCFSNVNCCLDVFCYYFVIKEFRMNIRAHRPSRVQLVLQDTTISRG
Sequence of Eukaryotic translation initiation factor 4E (P63073 whole entry): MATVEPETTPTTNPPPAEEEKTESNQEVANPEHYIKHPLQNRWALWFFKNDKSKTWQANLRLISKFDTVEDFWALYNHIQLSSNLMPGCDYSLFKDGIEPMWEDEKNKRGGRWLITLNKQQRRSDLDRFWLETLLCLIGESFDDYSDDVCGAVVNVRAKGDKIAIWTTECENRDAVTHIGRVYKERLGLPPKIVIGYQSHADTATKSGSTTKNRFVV

`CN(C)c1ccc(/C=C/c2ccc3c4ccccc4ccc3[n+]2-c2ccccc2)cc1`: the IC50 in assay [1] is 50 µM (inactive); in assay [3] it was > 80 µM (inactive); on Nonstructural protein 1, 2.36 µM (active); in assay [5] it was 4.64 µM (not active); in [9] it was 0.699 µM (active); in assay [10] it was 2.41 µM (active). The AC50 in assay [2] is 2.21 µM (active); in [4], 4.32 µM (active); in assay [11] it was < 0.26 µM (active); in assay [12], 3.19 µM (active). Moreover, the EC50 in assay [6] is 17 µM (not active); in assay [7], 85.7 µM (not active); in assay [8], 19.2 µM (inactive).
Consider `CC1CC(C)CN(S(=O)(=O)c2ccc(NC(=O)c3ccc(O)nc3)cc2)C1` (stereo not drawn), for which the CC50 in assay [13] is 19.7 µM (active). Besides, the IC50 in [14] is > 80 µM (inactive).
For the compound `COc1ccccc1-n1cc(C(=O)c2cc(Cl)ccc2O)cc(C#N)c1=O`, the EC50 in [15] was 2.4 µM (active). Besides, the IC50 was 25.5 µM (inactive) in [16] and 40.9 µM (inactive) in assay [17].
